In patent publication EP0225522A1, “Imidazopyridazine alkene carboxamides, process for their preparation, intermediate products and their preparation” (BAYER AG, priority 1985, dated 1987):

System: männliche Ratten
Experiment: Diuretic and saluretic effect in fasted male rats: urine and electrolyte excretion over 6 hours in metabolism cages
Format: in vivo, Ratten (SPF
Details: 100 mg/kg p.o. in 10 ml/kg Tylose-Suspension, excretion over 6 Stunden, fasted male Wistar rats; for K^+ / Na^+: flame photometer
Experimental: Die pharmakologische Wirkung der erfindungsgemäßen Verbindungen wurden nach folgender Testmethode ermittelt: Nüchterne männliche Ratten im Gewicht von 150 bis 250 g (SPF, Wistar, je n=4 Paare) werden mit 10 ml/kg p.o. Tylose-Suspension (0,5 X) als Kontrollen bzw. mit 100 mg/kg p.o. Prüfsubstanz in 10 ml/kg p.o. Tylose-Suspension mittels Schlundsonde behandelt. Die Tiere werden in Stoffwechselkäfige gebracht und die Harn- und Elektrolytauscheidung über 6 Stunden bestimmt (Na^4 und K^4 Bestimmung: IL-Flammenphotometer).

SMILES	Harn [mL/kg]	K^+ [µmol/kg]	Na^+ [µmol/kg]
CN1CCN(c2ccc3nc(-c4ccccc4)c(/C=C/C(=O)N4CCCCC4)n3n2)CC1 [Beispiel 33]	26	450	3400
CCN(CC)C(=O)/C=C/c1c(-c2ccccc2)nc2ccc(N3CCN(C)CC3)nn12 [Beispiel 35]	21	800	3100
Cc1ccc2nc(-c3ccccc3)c(/C=C/C(=O)N3CCCCC3)n2n1 [Beispiel 14]	25	900	2900
